# Source: patent US20260097037A1, “FUSED RING COMPOUND HAVING GLP-1 RECEPTOR AGONIST EFFECT” (Shionogi & Co., Ltd., priority 2022, published 2026)
# Biological target: T1, Human GLP-1 receptor stably expressing cells (hGLP-1R/CHO-K1 cells) (Homo sapiens, UniProt P43220)
# T1 construct: expressed in transfected cells
# Assay: Measurement of GLP-1 receptor agonist activity (cAMP assay)
# Type: cell-based
# Conditions: for Emax: CHO-K1, maximum effect, cAMP with 2 nM human GLP-1 (7-36) = 100%, DMSO only = 0%, read-out: Emax; for EC50: increase in cAMP concentration in hGLP-1R/CHO-K1 cells, 37° C. 1 hour
# Protocol: Test Example 1: Measurement of GLP-1 Receptor Agonist Activity
# Human GLP-1 receptor stably expressing cells (hGLP-1R/CHO-K1 cells) are cultured in an a-MEM medium (Sigma) containing 10% FBS (Hyclone), 2% GlutaMAX (Gibco), 1% G418 (Nacalai Tesque), and 1% Penicillin-Streptomycin Mixed Solution (Sigma) at 37° C. under 5% CO2 conditions, and recovered by treating a 10 fold diluted 5.0 g/1-trypsin/5.3 mmol/1-EDTA solution (Nacalai Tesque) and cryopreserved.
# A DMSO solution containing the compound of the present invention or human GLP-1 (7-36) (Phoenix Pharmaceuticals) is dispensed into a 384-well microplate (Greiner) at 62.5 nL/well, and in addition, 400 μM Forskolin (Nacalai Tesque) is dispensed therein at 7.5 nL/well. Subsequently, the frozen GLP-1 R/CHO-K1 cells are thawed in a thermostatic bath at 37° C., suspended in HBSS buffer (GIBCO) containing 0.1% BSA (Sigma), 20 mM HEPES, 0.1 mM IBMX (Sigma), and 0.2 mM RO20-1724 (Calbiochem) at 2×10^4 cells/mL, and the cell suspension is added at 6 μL/well. The solution was incubated at 37° C. for 1 hour and intracellular cAMP concentration is measured using cAMP Gs dynamic kit (Cisbio) according to the protocol attached to the product. Specifically, a cAMP-d2/Anti-cAMP-Cryptate (1/1) mixture solution is added in a total amount of 6 μL/well, and is incubated at room temperature for 1 hour, and then, time-resolved fluorescence is measured using PHERAstar (BMG Labtech).
# Assuming that the cAMP concentration when human GLP-1 (7-36) is dispensed to a final concentration of 2 nM is 100% and the cAMP concentration when only DMSO is dispensed is 0%, the 50% effective concentration (EC50) and the maximum effect (Emax) of the compound of the present invention are calculated using an increase in the cAMP concentration as an index, using TIBCO Spotfire (TIBCO Software). The dilution concentration or the dilution solvent are changed as necessary.
# The compounds of the present invention were tested essentially as described above.
# T1 sequence (P43220 24-463): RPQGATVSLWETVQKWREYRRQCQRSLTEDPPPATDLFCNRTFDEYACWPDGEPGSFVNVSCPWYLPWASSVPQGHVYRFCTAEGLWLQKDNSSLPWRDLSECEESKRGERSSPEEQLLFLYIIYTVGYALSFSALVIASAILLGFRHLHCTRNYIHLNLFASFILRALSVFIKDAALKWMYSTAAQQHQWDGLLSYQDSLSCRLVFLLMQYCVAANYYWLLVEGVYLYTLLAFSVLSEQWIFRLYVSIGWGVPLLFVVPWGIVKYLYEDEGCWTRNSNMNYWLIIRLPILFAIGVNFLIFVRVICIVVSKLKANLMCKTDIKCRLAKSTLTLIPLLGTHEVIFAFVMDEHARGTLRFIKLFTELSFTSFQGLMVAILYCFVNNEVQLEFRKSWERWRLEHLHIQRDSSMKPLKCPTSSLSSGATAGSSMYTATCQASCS
SMILES,Emax,EC50
C[C@H]1c2nc(OCc3ccc(Cl)cc3F)c(C(F)(F)F)cc2CCN1Cc1nc2c(-c3cccnc3)cc(C(=O)O)cc2n1C[C@@H]1CCO1 [Compound I-190],93.3%,4290 pM
C[C@H]1c2nc(OCc3c(F)cc(Cl)cc3F)c(C(F)F)cc2CCN1Cc1nc2c(F)cc(C(=O)O)cc2n1C[C@@H]1CCO1 [Compound I-113],116%,33.1 pM
C[C@H]1c2c(cc(Cl)c3c2OC(C)(c2ccc(Cl)cc2F)O3)CCN1Cc1nc2ccc(C(=O)O)cc2n1C[C@@H]1CCO1 (some centres unmarked) [Compound I-090],98%,2050 pM
COc1cc(Cl)ccc1COc1nc2c(cc1C#N)CCN(Cc1nc3c(Cl)cc(C(=O)O)cc3n1C[C@@H]1CCO1)[C@H]2C [Compound I-187],137%,40 pM
C[C@H]1c2c(cc(C(F)(F)F)c3c2O[C@](C)(c2ccc(Cl)cc2F)O3)CCN1Cc1nc2ccc(C(=O)O)cc2n1C[C@@H]1CCO1 [Compound I-046],112%,669000 pM
C[C@H]1c2nc(NCc3ccc(C#N)cc3F)c(C(F)(F)F)cc2CCN1Cc1nc2c(F)cc(C(=O)O)cc2n1C[C@@H]1CCO1 [Compound I-193],110%,211 pM
C[C@H]1c2c(cc(C(F)(F)F)c3c2OC(C)(c2ccc(Cl)cc2F)O3)CCN1Cc1nc2ccc(C(=O)O)cc2n1C[C@@H]1CCO1 (mixture of isomers) [Compound I-015],93.3%,2330 pM
C[C@H]1c2nc(NCc3ccc(Cl)cc3F)c(C(F)(F)F)cc2CCN1Cc1nc2ccc(C(=O)O)c(F)c2n1C[C@@H]1CCO1 [Compound I-153],112%,190 pM
COc1cc(C(=O)O)cc2c1nc(CN1CCc3cc(Cl)c(OCc4ccc(Cl)cn4)nc3[C@@H]1C)n2C[C@@H]1CCO1 [Compound I-065],104%,80.9 pM
C[C@H]1c2nc(NCc3ccc(C#N)cc3F)c(C(F)(F)F)cc2CCN1Cc1nc2c(Cl)cc(C(=O)O)cc2n1C[C@@H]1CCO1 [Compound I-194],103%,137 pM
C[C@H]1c2nc(OCc3cnn(C)n3)c(C(F)(F)F)cc2CCN1Cc1nc2ccc(C(=O)O)cc2n1C[C@@H]1CCO1 [Compound I-142],117%,7330 pM
C[C@H]1c2nc(NCc3ccc(Cl)cc3F)c(C(F)(F)F)cc2CCN1Cc1nc2ccc(C(=O)O)cc2n1C[C@@H]1CCO1 [Compound I-094],103%,256 pM
COc1cc(C(=O)O)cc2c1nc(CN1CCc3cc(C(F)(F)F)c(OCc4cc(Cl)n(C)n4)nc3[C@@H]1C)n2C[C@@H]1CCO1 [Compound I-155],96.3%,870 pM
C[C@H]1c2nc(NCc3ncc(Cl)cc3F)c(C(F)(F)F)cc2CCN1Cc1nc2c(F)cc(C(=O)O)cc2n1C[C@@H]1CCO1 [Compound I-191],114%,266 pM
C[C@H]1c2c(cc(C(F)(F)F)c3c2O[C@@](C)(c2ccc(Cl)cn2)O3)CCN1Cc1nc2c(Cl)cc(C(=O)O)cc2n1C[C@@H]1CCO1 [Compound I-158],111%,493 pM
C[C@H]1c2nc(OCc3ccc(Cl)c4ccoc34)c(C#N)cc2CCN1Cc1nc2c(Cl)cc(C(=O)O)cc2n1C[C@@H]1CCO1 [Compound I-180],111%,280 pM
C[C@H]1c2nc(OCc3ccc(C#N)cc3F)c(Cl)cc2CCN1Cc1nc2ccc(C(=O)O)c(F)c2n1C[C@@H]1CCO1 [Compound I-041],145%,63.7 pM
C[C@H]1c2nc(OCc3c(F)cc(Cl)cc3F)c(C(F)F)cc2CCN1Cc1nc2ccc(C(=O)O)c(F)c2n1C[C@@H]1CCO1 [Compound I-124],115%,38 pM
C[C@H]1c2nc(OCc3ccc(Cl)cc3F)c(C#N)cc2CCN1Cc1nc2c(F)cc(C(=O)O)cc2n1C[C@@H]1CCO1 [Compound I-138],128%,119 pM
C[C@H]1c2c(cc(Cl)c3c2OC(C)(c2ccc(Cl)cn2)O3)CCN1Cc1nc2ccc(C(=O)O)cc2n1C[C@@H]1CCO1 (some centres unmarked) [Compound I-092],108%,1580 pM
COc1cc(C(=O)O)cc2c1nc(CN1CCc3cc(Cl)c(OCc4c(F)cc(F)cc4F)nc3[C@@H]1C)n2C[C@@H]1CCO1 [Compound I-075],118%,49.3 pM
C[C@H]1c2cc(OCc3c(F)cc(Cl)cc3F)c(C(F)F)cc2CCN1Cc1nc2ccc(C(=O)O)cc2n1C[C@@H]1CCO1 [Compound I-012],108%,1250 pM
COc1cc(Cl)ccc1COc1cc2c(cc1C(F)F)CCN(Cc1nc3ccc(C(=O)O)cc3n1C[C@@H]1CCO1)[C@H]2C [Compound I-006],130%,308 pM
COc1cc(C(=O)O)cc2c1nc(CN1CCc3cc(C(F)(F)F)c(NCc4ccc(Cl)cc4)nc3[C@@H]1C)n2C[C@@H]1CCO1 [Compound I-167],122%,52 pM
C[C@H]1c2nc(OCc3cc(F)c(Cl)cc3F)c(C(F)F)cc2CCN1Cc1nc2ccc(C(=O)O)nc2n1C[C@@H]1CCO1 [Compound I-102],117%,469 pM
C[C@H]1c2cc(OCc3c(F)cc(Cl)cc3F)c(Cl)cc2CCN1Cc1nc2ccc(C(=O)O)c(F)c2n1C[C@@H]1CCO1 [Compound I-043],118%,64.7 pM

# Next, values leading:
Emax,EC50,SMILES
118%,372 pM,C[C@H]1c2nc(OCc3ccc(F)cc3)c(C(F)F)cc2CCN1Cc1nc2ccc(C(=O)O)c(F)c2n1C[C@@H]1CCO1 [Compound I-117]
93.7%,3310 pM,C[C@H]1c2nc(OCc3ncc(Cl)s3)c(C(F)(F)F)cc2CCN1Cc1nc2ccc(C(=O)O)cc2n1C[C@@H]1CCO1 [Compound I-048]
97.7%,1090 pM,C[C@H]1c2nc(OCc3nc(Cl)cs3)c(C(F)(F)F)cc2CCN1Cc1nc2ccc(C(=O)O)cc2n1C[C@@H]1CCO1 [Compound I-149]
114%,4210 pM,C[C@H]1c2cc(OCc3c(F)cc(F)cc3F)c(C(F)F)cc2CCN1Cc1nc2ccc(C(=O)O)cc2n1C[C@@H]1CCO1 [Compound I-013]
127%,208 pM,C[C@H]1c2nc(OCc3ccc(F)cc3)c(Cl)cc2CCN1Cc1nc2ccc(C(=O)O)c(F)c2n1C[C@@H]1CCO1 [Compound I-042]
107%,3890 pM,C[C@H]1c2cc(OCc3ccc(F)cc3F)c(C(F)F)cc2CCN1Cc1nc2ccc(C(=O)O)cc2n1C[C@@H]1CCO1 [Compound I-008]
123%,417 pM,Cc1ccc(COc2nc3c(cc2C(F)F)CCN(Cc2nc4ccc(C(=O)O)cc4n2C[C@@H]2CCO2)[C@H]3C)cc1 [Compound I-053]
106%,339 pM,C[C@H]1c2nc(OCc3ccc(Cl)cc3F)c(C#N)cc2CCN1Cc1nc2ccc(C(=O)O)cc2n1C[C@@H]1CCO1 [Compound I-136]
97%,558 pM,C[C@H]1c2nc(OCc3ccc(C#N)cc3F)c(C(F)F)cc2CCN1Cc1nc2ccc(C(=O)O)nc2n1C[C@@H]1CCO1 [Compound I-103]
124%,176 pM,C[C@H]1c2nc(OCc3ccc(F)cc3F)c(Cl)cc2CCN1Cc1nc2ccc(C(=O)O)cc2n1C[C@@H]1CCO1 [Compound I-019]
113%,105 pM,C[C@H]1c2nc(OCc3ccc(Cl)cc3)c(C(F)F)cc2CCN1Cc1nc2ccc(C(=O)O)c(F)c2n1C[C@@H]1CCO1 [Compound I-118]
86.7%,315 pM,C[C@H]1c2nc(OCc3ccc(Cl)cc3Cl)c(C(F)F)cc2CCN1Cc1nc2ccc(C(=O)O)cc2n1C[C@@H]1CCO1 [Compound I-057]
118%,1020 pM,C[C@H]1c2nc(OCc3ccc(F)cc3)c(C(F)F)cc2CCN1Cc1nc2ccc(C(=O)O)cc2n1C[C@@H]1CCO1 [Compound I-051]
88.3%,9310 pM,C[C@H]1c2nc(OCc3ccc(Cl)cc3F)ncc2CCN1Cc1nc2ccc(C(=O)O)cc2n1C[C@@H]1CCO1 [Compound I-080]
124%,117 pM,C[C@H]1c2nc(OCc3c(F)cc(Cl)cc3F)c(Cl)cc2CCN1Cc1nc2ccc(C(=O)O)cc2n1C[C@@H]1CCO1 [Compound I-024]
115%,580 pM,C[C@H]1c2nc(OCc3ccc(Cl)cc3Cl)c(C(F)F)cc2CCN1Cc1nc2ccc(C(=O)O)nc2n1C[C@@H]1CCO1 [Compound I-100]
136%,170 pM,C[C@H]1c2nc(OCc3ccc(Cl)cc3)c(Cl)cc2CCN1Cc1nc2ccc(C(=O)O)cc2n1C[C@@H]1CCO1 [Compound I-017]
